pEC50, pIC50: −log10 of the molar value. The source made the active and inactive calls.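 Rule for the calls: active = compounds giving half or more protection of infected cells from virus-caused growth loss, again on retest; inactive = the rest.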 Where a SMILES comes first, the peptide text is derived from it. The star is where a group is joined. Boc = CC(C)(C)OC(=O)*

25 molecules from PubChem BioAssay AID179 (DTP/NCI, 2004) can be followed below.

This experiment concerns CEM cells HIV-1 protection, formazan growth assay. The experiment can be described thus: NCI AIDS Antiviral Assay. The conditions noted are these: for pIC50: measured here: growth of uninfected CEM cells. The procedure, abridged: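 Human CEM cells, uninfected and HIV-1-infected, received five drug concentrations, and growth was read by soluble formazan assay. Compounds giving at least 50% protection were retested; reproducible 100% protection defined confirmed active.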

Consider `Clc1ccnc2c1ccc1c(Cl)ccnc12`, for which the pEC50 – broadly, the EC50 on a negative log10 scale, so that one unit is a factor of ten – was under 4.12 and the negative logarithm of the IC50 (pIC50) (as a rule, −log10 of the IC50, conventionally taken in molar units) was 4.86.
For `O=C1[C@@H]2C(c3ccccc3[N+](=O)[O-])=[N+](c3ccccc3)O[C@@H]2C(=O)N1c1ccc(Cc2ccc(N3C(=O)[C@H]4C(c5ccccc5[N+](=O)[O-])=[N+](c5ccccc5)O[C@H]4C3=O)cc2)cc1`, in that order: under 5.07 and under 5.07.
Turning to `O=c1c2c([nH]c3nccn13)CCCC2`, the pEC50 is under 3.70 and the pIC50 is under 3.70.
For the molecule `COc1ccc2c(O)c(Cc3ccc(OC)c(OC)c3)c(=O)oc2c1`, the result was inactive.
`CC(=O)OC12CCCC(=O)C1C1CC/C=C\CCC12` (configuration not stated): the pEC50 was under 3.77 and the pIC50 was 3.98.
On the same counts, the results for `Cc1nc2ccccc2c(=O)n1NC(=S)NC1CCCCC1` are under 5.34 and under 5.34.
Take `Cc1nc2c(O)ccc(O)c2nc1C`: the pEC50 is under 3.70 and the pIC50 was 4.75.
For `CC1(C)O[C@@H]2[C@@H](COC(C)(C)O[C@H]2C2SCCCS2)O1`, in that order: under 3.70 and under 3.70.
For `O=C(NNC(=O)c1csc(NC(=S)NC2CCCCC2)n1)c1ccccc1`, the pEC50 was under 3.70 and the pIC50 was 4.84.
For `CC1S(=O)(=O)OCCCOS1(=O)=O`, in that order: under 2.97 and under 2.97.
On the same counts, the results for `CC/C(=C(\c1ccccc1)c1ccc(OCCN(C)C)cc1)c1ccccc1` are under 4.08 and 4.83.
As for `C=C1CCc2occ(C)c2C2C1C1=C(CC(C)C1=O)C1OC12C` (configuration not stated), the pEC50 was under 3.66 and the negative-log IC50 (pIC50) was under 3.66.
As to `c1ccc(P(CCP(CCP(c2ccccc2)c2ccccc2)c2ccccc2)CCP(c2ccccc2)c2ccccc2)cc1` (configuration not stated), the pEC50 was under 4.97 and the pIC50 is under 4.97.
For the molecule `CC1(C)C2CCC13CS(=O)(=O)N(C(=O)[C@H]1CC=CCC1)C3C2` (some centres not stated), the pEC50 was under 3.95 and the negative-log IC50 (pIC50) is under 3.95.
Turning to `Cc1cc(S(=O)(=O)n2ccnc2Oc2ccc(N)cc2)c(SSc2cc(Cl)c(C)cc2S(=O)(=O)n2ccnc2Oc2ccc(N)cc2)cc1Cl`, the pEC50 is under 4.00 and the negative-log IC50 (pIC50) was 4.66.
On the same counts, the results for `Cn1cc(NC(=O)c2nc(NC(=O)c3nc(NC(=O)/C=C/C(=O)Nc4cn(C)c(C(=O)Nc5cn(C)c(C(=O)Nc6cn(C)c(C(=O)NCCC(=N)N)n6)n5)n4)cn3C)cn2C)nc1C(=O)NCCC(=N)N` are under 4.30 and 5.07.
On the same counts, the results for `CC(=Nc1ccccc1C(=O)[O-])c1c([O-])ccc2c(C)cc(=O)oc12.[Cu+2].[OH3+]` are under 5.88 and under 5.88.
Turning to `N#Cc1nc2ccccc2nc1N1CCN(c2ccc([N+](=O)[O-])cc2)CC1`, the pEC50 was under 3.70 and the negative-log IC50 (pIC50) is under 3.70.
Regarding `CC(=O)[CH-]C(C)=O.[CH2-]C.[CH2-]C.[Tl+3]`, the pEC50 was under 3.30 and the negative logarithm of the IC50 (pIC50) was under 3.30.
For `Cc1cn(C2CC(N=[N+]=[N-])C(C(=O)O)O2)c(=O)[nH]c1=O` (configuration not stated), the pEC50 was 4.93 and the pIC50 was under 3.70.
For `COC(=O)C(Cc1c[nH]c2ccccc12)NC(=O)C(Cc1c[nH]c2ccccc12)NC(=O)C(Cc1c[nH]c2ccccc12)NC(=O)C(Cc1c[nH]c2ccccc12)NC(=O)C(Cc1c[nH]c2ccccc12)NC(=O)OC(C)(C)C` (configuration not stated) (Boc-WWWWW-OMe; configuration not given here), in that order: under 3.70 and 4.56.
For `C=C(C)C(=O)N1c2ccc(OC)cc2CC1C(=O)OCC` (configuration not stated), in that order: under 3.70 and under 3.70.
Take `COc1cc(NS(C)(=O)=O)ccc1Nc1c2ccccc2nc2ccccc12`: the outcome was inactive.
Same read-out and setting: next, `CCOC(=O)c1nc2cc(C(F)(F)F)ccc2nc1Nc1cc(OC)c(OC)c(OC)c1`: “inactive”.
With `O=C1NCC2(CCNCC2)N1`, the pEC50 was under 3.70 and the pIC50 was under 3.70.
